pKd: −log10 of the molar value.

The record followed here is US11059830B2, “Compounds that participate in cooperative binding and uses thereof” (Revolution Medicines, Inc., priority 2015, dated 2021).

In the assay the target is FKBP12 (Homo sapiens (Human), UniProt P62942). Kind of assay: SPR kinetics of Compound 2 and Compound 6 binding to immobilized FKBP12 (Example 8). Particulars: compound to immobilized FKBP12, 25° C. How it is done: This protocol utilizes Surface Plasmon Resonance (SPR) as a method to determine kinetics (KD, Ka, Kd) for the binding of Compound 2 and Compound 6 (analyte) to immobilized FKBP12 (ligand).
FKBP12, sequence (P62942 whole entry): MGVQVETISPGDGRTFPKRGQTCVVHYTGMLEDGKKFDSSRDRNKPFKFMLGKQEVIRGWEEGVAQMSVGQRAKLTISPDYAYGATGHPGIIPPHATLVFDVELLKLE
Compound 2 and Compound 6 in 100% DMSO (in-house), 10×HBS-P+ buffer (GE Healthcare BR-1006-71), Assay buffer (1×HBS-P+ buffer, 1% DMSO), 12×HIS tagged FKBP12 (in-house).
Experiments are performed at 25° C. Stock solution of 12×HIS tagged FKBP12 is diluted to 100 nM in assay buffer (1% DMSO final). Approximately 500-600 RU of FKBP12 is immobilized on one of two flow cells of an activated NTA chip. The second flow cell is not activated as a reference for non-specific interaction of the analyte to the sensor chip. Various concentrations of Compound 2 or Compound 6 (1 nM-1 μM range), serially diluted into the same assay buffer (1% DMSO final), are injected onto the FKBP12 surface and reference surface at a flow rate of 10 μl/min. The surface is regenerated between analyte injections with 350 mM EDTA.
The BiaEvaluation software program is used for data fitting. All data is reference subtracted against both the reference flow cell and a buffer injection. For kinetic analyses, data is locally fit to a 1:1 interaction model.
In general terms: In SPR one partner is held on a chip, and binding of the other changes the refractive index at the surface.

By pKd is commonly meant the negative decadic logarithm of the Kd, by convention in mol/L. Lower therefore signals a large Kd. In general, koff refers to the first-order rate constant of dissociation. As for `CC[C@H](Cc1ccccc1)[C@@H]1/C=C/C/C=C/C[C@@H](C)[C@H](O)[C@@H](C)[C@@H]2CC[C@@H](C)C(=O)C(O)(O2)C(=O)N2CCCC[C@H]2C(=O)O1` [Compound 2], the pKd was 7.88 and the koff came out at 0.000594 s⁻¹. For the same compound, the kon (read-out: Ka) amounted to 45000 M⁻¹ s⁻¹.
